Assay results: ChEMBL document CHEMBL1201862, “PubChem BioAssay data set” (2004)
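Where inhibition never reached the appropriate level, the endpoint shown equals the highest concentration tested. Otherwise, values were interpolated linearly from a five-concentration, 48-hour dose response in 96-well plates. The concentration for 50% growth inhibition is given as GI50.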 The source made the active and inactive calls. Rule as the data show it: active = GI50 up to about 1.1 µM and inactive = higher.

Columns and labels:
Test in all cases: NCI-60 cell line screen, 48 h
RPMI-8226 = test system: RPMI-8226
U-251 = test system: U-251
SR = test system: SR
EKVX = test system: EKVX
OVCAR-4 = test system: OVCAR-4
LOX IMVI = test system: LOX IMVI
NCI/ADR-RES = test system: NCI/ADR-RES
HCT-116 = test system: HCT-116
CAKI-1 = test system: CAKI-1
SNB-75 = test system: SNB-75
KM12 = test system: KM12
PC-3 = test system: PC-3
Malme-3M = test system: Malme-3M
HL-60 = test system: HL-60
OVCAR-5 = test system: OVCAR-5
HOP-62 = test system: HOP-62
ACHN = test system: ACHN
OVCAR-8 = test system: OVCAR-8
MCF7 = test system: MCF7
NCI-H23 = test system: NCI-H23
OVCAR-3 = test system: OVCAR-3
SF-295 = test system: SF-295
HCC 2998 = test system: HCC 2998
UO-31 = test system: UO-31
CCRF-CEM = test system: CCRF-CEM
HOP-92 = test system: HOP-92
NCI-H460 = test system: NCI-H460
NCI-H226 = test system: NCI-H226
NCI-H522 = test system: NCI-H522
M14 = test system: M14
RXF 393 = test system: RXF 393
SNB-19 = test system: SNB-19
DU-145 = test system: DU-145
IGROV-1 = test system: IGROV-1
MDA-N = test system: MDA-N
K562 = test system: K562
BT-549 = test system: BT-549
UACC-257 = test system: UACC-257
MDA-MB-435 = test system: MDA-MB-435
HCT-15 = test system: HCT-15
SK-MEL-2 = test system: SK-MEL-2
TK-10 = test system: TK-10
SN12C = test system: SN12C
MOLT-4 = test system: MOLT-4
Hs-578T = test system: Hs-578T
A498 = test system: A498
HT-29 = test system: HT-29
MDA-MB-231 = test system: MDA-MB-231
T47D = test system: T47D
SK-OV-3 = test system: SK-OV-3
SK-MEL-5 = test system: SK-MEL-5
A549 = test system: A549
COLO 205 = test system: COLO 205
786-0 = test system: 786-0
UACC-62 = test system: UACC-62
SK-MEL-28 = test system: SK-MEL-28
SF-268 = test system: SF-268
SW-620 = test system: SW-620
SF-539 = test system: SF-539

In the case of `CCc1nc2cc3cccnc3c(Cl)c2[nH]c1=O`, the GI50 (RPMI-8226) is reported as > 100 µM (inactive), the GI50 (U-251) is reported as 61.5 µM (inactive) and the GI50 (SR) is reported as > 100 µM (inactive). For the same molecule, the GI50 (EKVX) was > 100 µM (inactive), the GI50 (OVCAR-4) was > 100 µM (inactive) and the GI50 (LOX IMVI) was > 100 µM (inactive). The GI50 (NCI/ADR-RES) was 79.1 µM (inactive), the GI50 (HCT-116) was > 100 µM (inactive) and the GI50 (CAKI-1) was 75.7 µM (inactive). The GI50 (SNB-75) was 17.8 µM (inactive), the GI50 (KM12) was > 100 µM (inactive) and the GI50 (PC-3) was > 100 µM (inactive). The GI50 (Malme-3M) was > 100 µM (inactive), the GI50 (HL-60) was > 100 µM (inactive) and the GI50 (OVCAR-5) was > 100 µM (inactive). The GI50 (HOP-62) was > 100 µM (inactive), the GI50 (ACHN) was 78.7 µM (inactive) and the GI50 (OVCAR-8) was > 100 µM (inactive). The GI50 (MCF7) was 5.86 µM (inactive), the GI50 (NCI-H23) was > 100 µM (inactive) and the GI50 (OVCAR-3) was > 100 µM (inactive). For the same molecule, the GI50 (SF-295) was > 100 µM (inactive), the GI50 (HCC 2998) was > 100 µM (inactive) and the GI50 (UO-31) was > 100 µM (inactive). For the same molecule, the GI50 (CCRF-CEM) was > 100 µM (inactive), the GI50 (HOP-92) was 49.2 µM (inactive) and the GI50 (NCI-H460) was > 100 µM (inactive). For the same molecule, the GI50 (NCI-H226) was > 100 µM (inactive), the GI50 (NCI-H522) was > 100 µM (inactive) and the GI50 (M14) was > 100 µM (inactive). For the same molecule, the GI50 (RXF 393) was 31.8 µM (inactive), the GI50 (SNB-19) was 58.3 µM (inactive) and the GI50 (DU-145) was > 100 µM (inactive). For the same molecule, the GI50 (IGROV-1) was 71 µM (inactive), the GI50 (MDA-N) was > 100 µM (inactive) and the GI50 (K562) was > 100 µM (inactive). For the same molecule, the GI50 (BT-549) was 65.9 µM (inactive), the GI50 (UACC-257) was > 100 µM (inactive) and the GI50 (MDA-MB-435) was > 100 µM (inactive). For the same molecule, the GI50 (HCT-15) was over 100 µM, the GI50 (SK-MEL-2) was > 100 µM (inactive) and the GI50 (TK-10) was 89.5 µM (inactive). For the same molecule, the GI50 (SN12C) was > 100 µM (inactive), the GI50 (MOLT-4) was > 100 µM (inactive) and the GI50 (Hs-578T) was > 100 µM (inactive). For the same molecule, the GI50 (A498) was > 100 µM (inactive), the GI50 (HT-29) was > 100 µM (inactive) and the GI50 (MDA-MB-231) was > 100 µM (inactive). For the same molecule, the GI50 (T47D) was 63.4 µM (inactive), the GI50 (SK-OV-3) was 95.9 µM (inactive) and the GI50 (SK-MEL-5) was > 100 µM (inactive). For the same molecule, the GI50 (A549) was > 100 µM (inactive), the GI50 (COLO 205) was > 100 µM (inactive) and the GI50 (786-0) was 79.8 µM (inactive). The GI50 (UACC-62) was > 100 µM (inactive), the GI50 (SK-MEL-28) was > 100 µM (inactive) and the GI50 (SF-268) was > 100 µM (inactive). For the same molecule, the GI50 (SW-620) was > 100 µM (inactive).

With `CC(C)(C)N/N=C(/Cc1nc2c3c(ccc2nc1O)C(=O)c1ccccc1C3=O)C(=O)NC1=C(Cl)C(=O)c2ccccc2C1=O` the GI50 (RPMI-8226) was 78.9 µM (inactive), the GI50 (U-251) was 47.8 µM (inactive) and the GI50 (SR) was 27.7 µM (inactive). For the same molecule, the GI50 (EKVX) was 61.2 µM (inactive), the GI50 (OVCAR-4) was 5.16 µM (inactive) and the GI50 (LOX IMVI) was 6.17 µM (inactive). For the same molecule, the GI50 (NCI/ADR-RES) was 5.77 µM (inactive), the GI50 (HCT-116) was 13.9 µM (inactive) and the GI50 (CAKI-1) was 1.06 µM (active). The GI50 (SNB-75) was 2.38 µM (inactive), the GI50 (KM12) was 2.7 µM (inactive) and the GI50 (PC-3) was 7.71 µM (inactive). The GI50 (Malme-3M) was 12.3 µM (inactive), the GI50 (HL-60) was 10.3 µM (inactive) and the GI50 (OVCAR-5) was > 100 µM (inactive). The GI50 (ACHN) was 5.37 µM (inactive), the GI50 (OVCAR-8) was 10 µM (inactive) and the GI50 (MCF7) was 20 µM (inactive). For the same molecule, the GI50 (NCI-H23) was 42.1 µM (inactive), the GI50 (OVCAR-3) was 13.9 µM (inactive) and the GI50 (SF-295) was 39.4 µM (inactive). For the same molecule, the GI50 (HCC 2998) was 17.9 µM (inactive), the GI50 (UO-31) was 4.91 µM (inactive) and the GI50 (CCRF-CEM) was 14.4 µM (inactive). For the same molecule, the GI50 (HOP-92) was 31.6 µM (inactive), the GI50 (NCI-H460) was 5.42 µM (inactive) and the GI50 (SF-539) was 21 µM (inactive). For the same molecule, the GI50 (NCI-H226) was 10.7 µM (inactive), the GI50 (NCI-H522) was 16.9 µM (inactive) and the GI50 (M14) was 15.5 µM (inactive). For the same molecule, the GI50 (RXF 393) was 6.18 µM (inactive), the GI50 (SNB-19) was 72.8 µM (inactive) and the GI50 (DU-145) was 21.8 µM (inactive). For the same molecule, the GI50 (IGROV-1) was 5.14 µM (inactive), the GI50 (MDA-N) was 15.1 µM (inactive) and the GI50 (K562) was 85.3 µM (inactive). The GI50 (BT-549) was 70.5 µM (inactive), the GI50 (UACC-257) was 57.9 µM (inactive) and the GI50 (MDA-MB-435) was 33 µM (inactive). The GI50 (HCT-15) was 4.26 µM, the GI50 (SK-MEL-2) was 12.4 µM (inactive) and the GI50 (SN12C) was 17 µM (inactive). The GI50 (MOLT-4) was 23.2 µM (inactive), the GI50 (Hs-578T) was 24.7 µM (inactive) and the GI50 (A498) was 88.9 µM (inactive). For the same molecule, the GI50 (HT-29) was 13.6 µM (inactive), the GI50 (MDA-MB-231) was 1.98 µM (inactive) and the GI50 (T47D) was 23.3 µM (inactive). The GI50 (SK-OV-3) was 7.16 µM (inactive), the GI50 (SK-MEL-5) was 11.1 µM (inactive) and the GI50 (A549) was 18.3 µM (inactive). The GI50 (COLO 205) was 24 µM (inactive), the GI50 (786-0) was 33.2 µM (inactive) and the GI50 (UACC-62) was 21.2 µM (inactive). For the same molecule, the GI50 (SK-MEL-28) was > 100 µM (inactive), the GI50 (SF-268) was 6.97 µM (inactive) and the GI50 (SW-620) was 39.3 µM (inactive).
